According to a melting point compilation (Tetko et al.; mined from patent text by program, amines drawn as free bases though some values may be those of a salt):

Row | Compound | melting point [°C]
1 | CO[C@H]1O[C@@H](C)[C@@H]2[C@H](/C=C/[C@H]3CCC[C@H](C)N3C(=O)OC(C)(C)C)[C@H]3CCCC[C@@H]3C[C@H]12 | 90.5 to 92.5
2 | CN1C(=O)[C@H](NC(=O)CCc2ccc(C#N)cc2)N=C(c2ccccc2)c2ccccc21 | 81 to 85
3 | CCOC(=O)c1ccc(/C=C/c2ccc3c(c2)C(C)(C)CC3(C)C)cc1 | 151 to 152
4 | Cc1cc(=O)n(-c2cccc(Cl)c2)c2[nH]n(-c3ccccc3)c(=O)c12 | 278 to 282
5 | COCC(C)(Oc1ccc(CC(=O)Nc2cc(C)cc(C)c2)cc1)C(=O)O (centres undefined) | 170 to 172
6 | CC(C)[C@H](NC(=O)OCc1ccccc1)C(=O)NC(Cc1ccccc1)C(O)C(Cc1ccccc1)NC(=O)[C@@H](NC(=O)OCc1ccccc1)C(C)C (some centres undefined) | 198 to 200
7 | CSC(=S)NCc1c(Cl)cccc1Cl | 47
8 | CCS(=O)(=O)NCCCCn1c(=O)c2c(C)nc3cccc1n32 | 144 to 145
9 | Cc1ccc(S(=O)(=O)N(CC(=O)OCc2ccccc2)c2ccc(Cl)cc2C(=O)c2ccccc2Cl)cc1 | 99 to 101
10 | CCCn1c(=O)c2c(nc(/C=C/c3ccc(OC(C)=O)c(OC(C)=O)c3)n2C)n(CCC)c1=O | 229 to 230
11 | CCCCCC(CC(=O)Nc1cc(C(=O)O)ccc1C(C)(C)C)c1cccc(OC)c1OC (centres undefined) | 146 to 147
12 | O=C(c1ccccc1)c1ccc(OCCOCCO)cc1 | 31 to 32
13 | COC(=O)c1cc[nH]c1 | 78 to 81
14 | Cn1c(=O)c(=O)[nH]c2cc([N+](=O)[O-])ccc21 | 356
15 | COc1ccc(C(=O)C(=O)c2ccccn2)cc1 | 97 to 98
16 | Cc1ccc(S(=O)(=O)NCl)cc1 | 201 to 206
17 | COc1ccc(-c2nc(CCOc3ccc(CN(O)C(N)=O)cc3)c(C)o2)cc1 | 100 to 101
18 | CN(Cc1ccc2c(Br)c(OCc3nnn[nH]3)ccc2c1)C(=O)c1cn(Cc2ccccc2)c2ccccc12 | 197 to 198
19 | CC(C)C(OC(=O)C(C)(C)C)n1nnc(-c2ccccc2-c2ccc(Oc3c(C4CC4)nc4ccccc4c3C(=O)O)cc2)n1 (centres undefined) | 165 to 168
20 | CCCCCCCCCCC=C1SC(=S)N(CC(=O)O)C1=O | 61 to 63
21 | CC1=C(/C=C/S(=O)(=O)NC(C)C)[C@H](c2cccc([N+](=O)[O-])c2)C(C(=O)O[C@H](C)c2ccccc2)=C(C)N1 | 198 to 201
22 | CC(C)(O)P(=O)(c1ccccc1)c1ccccc1 | 96 to 98
23 | CCCCCC(O)C1C(=O)NC(C(=O)SCc2ccccc2)(C(O)C2C=CCCC2)C1(C)O (centres undefined) | 123
24 | CC(=O)CC(=O)Nc1cccc(OC(C)=O)c1 | 101

Results, then the compound that gave them:

Row | melting point [°C] | Compound
25 | 178 to 179 | Nc1nsc(Nc2c(Cl)cccc2Cl)n1
26 | 204 to 207 | O=C1CCCN2N=C(c3ccc(Br)cc3)SC2=N1
27 | 156 to 158 | Oc1ccc2sc(C=C3C4CC5CC(C4)CC3C5)nc2c1
28 | 122 to 123 | OCCN1CCOC(c2ccccc2)(c2ccccc2)CC1
29 | 35.5 to 36.5 | CCOC(=O)Cc1csc(-c2ccccc2O)n1
30 | 172 to 173 | COc1ccccc1C1CC(=O)Oc2ccc(Cl)cc21 (centres undefined)
31 | 80 to 81 | CC(C(=O)c1ccccn1)c1ccc(C2CCCCC2)cc1 (centres undefined)
32 | 168 to 169 | O=C(NCCO)c1cccc(-c2ccc3c(n2)N(c2ccc(Cl)cc2Cl)CC3)c1
33 | 193 to 195 | O=C(NC1CCN(CCc2ccncc2)CC1)c1ccccc1
34 | 125 to 127 | Clc1ccc2c(c1)C(Cl)c1ccccc1CO2 (centres undefined)
35 | > 255 | COc1cc(NS(C)(=O)=O)ccc1C1=NC2=CCC(=O)NC2=N1
36 | 88 to 90 | O=C(CCc1ccc(O)c(Cl)c1)C1CCCC1
37 | 205 to 207 | CCCc1nc2c(N)nc3cc(OCc4ccc(C)cc4)ccc3c2n1CC(C)C
38 | 287 to 289 | CCn1cc(C(=O)O)c(=O)c2cc(F)c(N3CCC(NCC(C)=O)C3)nc21 (centres undefined)
39 | 147 to 149 | COc1nc2cc([N+](=O)[O-])cc(C=O)c2nc1OC
